Laboratory results as given in patent US20240317718A1, “SUBSTITUTED HETEROCYCLIC COMPOUNDS” (BRISTOL-MYERS SQUIBB COMPANY, priority 2021, published 2024).

Columns and labels:
[1] = test system: IFNα-induced pSTAT5 (Tyk2-mediated signal transduction); assay: IFNα-induced STAT phosphorylation in human whole blood; assay type: cell-based; conditions: 1 h incubation with compound, 1000 U/mL IFNα A/D for 15 min, CD3 positive population, read-out: Human Whole blood IFNa pSTAT5 IC50
Description: IFNα-Induced STAT Phosphorylation in Human Whole Blood
After an hour long incubation with compound, human whole blood (drawn with ACD-A as anticoagulant) was stimulated with 1000 U/mL recombinant human IFNα A/D (R&D Systems 11200-2) for 15 min. The stimulation was stopped by adding Fix/Lyse buffer (BD 558049). Cells were stained with a CD3 FITC antibody (BD 555916), washed, and permeabilized on ice using Perm III buffer (BD 558050). Cells were then stained with an Alexa-Fluor 647 pSTAT5 (pY694) antibody (BD 612599) for 60 min prior to analysis on the iQue Plus. The amount of pSTAT5 expression was quantitated by median fluorescence intensity after gating on the CD3 positive population.

[2] = in vitro; conditions: human, Caco-2, pH 7.4

Compound | IC50 [1] | Papp A→B at 2 h, 3 μM [2] | efflux ratio at 2 h, 3 μM [2]
[2H]C([2H])([2H])NC(=O)c1nnc(NC(=O)C2CC2)cc1Nc1cccc(-c2noc(CF)n2)c1OC [Example 1, 6-(cyclopropanecarboxamido)-4-((3-(5-(fluoromethyl)-1,2,4-oxadiazol-3-yl)-2-methoxyphenyl)amino)-N-(methyl-d3)pyridazine-3-carboxamide] | 34 nM | 65 ×10⁻⁶ cm/s | 0.5
[2H]C([2H])([2H])NC(=O)c1nnc(NC(=O)C2CC2)cc1Nc1cccc(-c2ccsn2)c1OC [Example 35, 6-cyclopropaneamido-4-{[2-methoxy-3-(1,2-thiazol-3-yl)phenyl]amino}-N-(^2H3)methylpyridazine-3-carboxamide] | 121 nM | 42.2 ×10⁻⁶ cm/s | 0.5
[2H]C([2H])([2H])NC(=O)c1nnc(NC(=O)C2CC2)cc1Nc1cc(F)cc(-c2cnc(C3CC3)cn2)c1OC [Example 16, 6-(cyclopropanecarboxamido)-4-((3-(5-cyclopropylpyrazin-2-yl)-5-fluoro-2-methoxyphenyl)amino)-N-(methyl-d3)pyridazine-3-carboxamide] | 197 nM | 19.4 ×10⁻⁶ cm/s | 0.5
[2H]C([2H])([2H])NC(=O)c1nnc(NC(=O)C2CC2)cc1Nc1nccc(-c2nc(C)ns2)c1OC [Example 39, 6-cyclopropaneamido-4-{[3-methoxy-4-(3-methyl-1,2,4-thiadiazol-5-yl)pyridin-2-yl]amino}-N-(^2H3)methylpyridazine-3-carboxamide] | 159 nM | 46.3 ×10⁻⁶ cm/s | 0.3
[2H]C([2H])([2H])NC(=O)c1nnc(NC(=O)C2C[C@H]2C)cc1Nc1cccc(-c2nnn(C)n2)c1OC (mixture of isomers) [Example 25, 4-{[2-methoxy-3-(2-methyl-2H-1,2,3,4-tetrazol-5-yl)phenyl]amino}-N-(^2H3)methyl-6-[(1R,2R)-2-methylcyclopropaneamido]pyridazine-3-carboxamide] | 248 nM | 23.3 ×10⁻⁶ cm/s | 1.1
[2H]C([2H])([2H])NC(=O)c1nnc(NC(=O)C2CC2)cc1Nc1cccc(-c2coc(C)n2)c1OC [Example 17, 6-(cyclopropanecarboxamido)-4-((2-methoxy-3-(2-methyloxazol-4-yl)phenyl)amino)-N-(methyl-d3)pyridazine-3-carboxamide] | 63 nM | 47.4 ×10⁻⁶ cm/s | 0.4
[2H]C([2H])([2H])NC(=O)c1nnc(NC(=O)C2CC2)cc1Nc1cc(F)cc(-c2cnn(C)c2)c1OC [Example 27, 6-cyclopropaneamido-4-{[5-fluoro-2-methoxy-3-(1-methyl-1H-pyrazol-4-yl)phenyl]amino}-N-(^2H3)methylpyridazine-3-carboxamide] | 177 nM | 31.2 ×10⁻⁶ cm/s | 0.9
CNC(=O)c1nnc(NC(=O)C2CC2)cc1Nc1cccc(-c2ncns2)c1OC [Example 9, 6-cyclopropaneamido-4-{[2-methoxy-3-(1,2,4-thiadiazol-5-yl)phenyl]amino}-N-(^2H3)methylpyridazine-3-carboxamide] | 161 nM | – | –
[2H]C([2H])([2H])NC(=O)c1nnc(NC(=O)C2CC2)cc1Nc1cccc(-c2noc(CC)n2)c1OC [Example 43, 6-cyclopropaneamido-4-{[3-(5-ethyl-1,2,4-oxadiazol-3-yl)-2-methoxyphenyl]amino}-N-(^2H3)methylpyridazine-3-carboxamide] | 443 nM | 24.2 ×10⁻⁶ cm/s | 0.8
[2H]C([2H])([2H])NC(=O)c1nnc(NC(=O)C2CC2)cc1Nc1nccc(-c2ncns2)c1OC [Example 41, 6-cyclopropaneamido-4-{[3-methoxy-4-(1,2,4-thiadiazol-5-yl)pyridin-2-yl]amino}-N-(^2H3)methylpyridazine-3-carboxamide] | 175 nM | 27.7 ×10⁻⁶ cm/s | 0.4
[2H]C([2H])([2H])NC(=O)c1nnc(NC(=O)C2CC2)cc1Nc1cccc(-c2cnn(C3CC3)c2)c1OC [Example 28, 6-cyclopropaneamido-4-{[3-(1-cyclopropyl-1H-pyrazol-4-yl)-2-methoxyphenyl]amino}-N-(^2H3)methylpyridazine-3-carboxamide] | 425 nM | 27.4 ×10⁻⁶ cm/s | 0.7
[2H]C([2H])([2H])NC(=O)c1nnc(NC(=O)C2CC2)cc1Nc1cccc(-c2noc(CCF)n2)c1OC [Example 5, 6-(cyclopropanecarboxamido)-4-((3-(5-(2-fluoroethyl)-1,2,4-oxadiazol-3-yl)-2-methoxyphenyl)amino)-N-(methyl-d3)pyridazine-3-carboxamide] | 91 nM | 64 ×10⁻⁶ cm/s | 0.7
CNC(=O)c1nnc(NC(=O)C2CC2)cc1Nc1cccc(-c2cc(C)ncn2)c1OC [Example 8, 6-cyclopropaneamido-4-{[2-methoxy-3-(6-methylpyrimidin-4-yl)phenyl]amino}-N-(^2H3)methylpyridazine-3-carboxamide] | 248 nM | – | –
[2H]C([2H])([2H])NC(=O)c1nnc(NC(=O)C2CC2)cc1Nc1cccc(-c2ccns2)c1OC [Example 34, 6-cyclopropaneamido-4-{[2-methoxy-3-(1,2-thiazol-5-yl)phenyl]amino}-N-(^2H3)methylpyridazine-3-carboxamide] | 474 nM | 23.3 ×10⁻⁶ cm/s | 1.1
[2H]C([2H])([2H])NC(=O)c1nnc(NC(=O)C2CC2)cc1Nc1cccc(-c2csc(C)n2)c1OC [Example 21, 6-cyclopropaneamido-4-{[2-methoxy-3-(2-methyl-1,3-thiazol-4-yl)phenyl]amino}-N-(^2H3)methylpyridazine-3-carboxamide] | 385 nM | 14.1 ×10⁻⁶ cm/s | 0.7
[2H]C([2H])([2H])NC(=O)c1nnc(NC(=O)C2CC2)cc1Nc1cccc(-c2cnc(C#N)cn2)c1OC [Example 29, 4-{[3-(5-cyanopyrazin-2-yl)-2-methoxyphenyl]amino}-6-cyclopropaneamido-N-(^2H3)methylpyridazine-3-carboxamide] | 417 nM | 31.7 ×10⁻⁶ cm/s | 0.5
[2H]C([2H])([2H])NC(=O)c1nnc(NC(=O)C2CC2)cc1Nc1cc(F)cc(-c2cocn2)c1OC [Example 37, 6-cyclopropaneamido-4-{[5-fluoro-2-methoxy-3-(1,3-oxazol-4-yl)phenyl]amino}-N-(^2H3)methylpyridazine-3-carboxamide] | 84 nM | 35.4 ×10⁻⁶ cm/s | 0.4
[2H]C([2H])([2H])NC(=O)c1nnc(NC(=O)C2CC2)cc1Nc1cc(F)cc(-c2cnc(C3(O)CCC3)cn2)c1OC [Example 15, 6-cyclopropaneamido-4-({5-fluoro-3-[5-(1-hydroxycyclobutyl)pyrazin-2-yl]-2-methoxyphenyl}amino)-N-(^2H3)methylpyridazine-3-carboxamide] | 99 nM | 30.9 ×10⁻⁶ cm/s | 1
CNC(=O)c1nnc(NC(=O)C2CC2)cc1Nc1cccc(-c2cnc(C3CC3)cn2)c1OC [Example 11, 6-cyclopropaneamido-4-{[3-(5-cyclopropylpyrazin-2-yl)-2-methoxyphenyl]amino}-N-(^2H3)methylpyridazine-3-carboxamide] | 165 nM | – | –
[2H]C([2H])([2H])NC(=O)c1nnc(NC(=O)C2CC2)cc1Nc1cccc(-c2noc(C(F)F)n2)c1OC [Example 19, 6-(cyclopropanecarboxamido)-4-((3-(5-(difluoromethyl)-1,2,4-oxadiazol-3-yl)-2-methoxyphenyl)amino)-N-(methyl-d3)pyridazine-3-carboxamide] | 69 nM | 17 ×10⁻⁶ cm/s | 0.6
CNC(=O)c1nnc(NC(=O)C2CC2)cc1Nc1cccc(-c2cnc([N+](=O)[O-])cn2)c1OC [Example 12, 6-cyclopropaneamido-4-{[2-methoxy-3-(5-nitropyrazin-2-yl)phenyl]amino}-N-(^2H3)methylpyridazine-3-carboxamide] | 44 nM | – | –
CNC(=O)c1nnc(NC(=O)C2CC2)cc1Nc1cccc(-c2cnc(F)cn2)c1OC [Example 10, 6-cyclopropaneamido-4-{[3-(5-fluoropyrazin-2-yl)-2-methoxyphenyl]amino}-N-(^2H3)methylpyridazine-3-carboxamide] | 219 nM | – | –
CNC(=O)c1nnc(NC(=O)C2CC2)cc1Nc1cccc(-c2nc(C)ns2)c1OC [Example 13, 6-cyclopropaneamido-4-{[2-methoxy-3-(3-methyl-1,2,4-thiadiazol-5-yl)phenyl]amino}-N-(^2H3)methylpyridazine-3-carboxamide] | 51 nM | – | –
CNC(=O)c1nnc(NC(=O)C2CC2)cc1Nc1cccc(-c2noc(CCOC)n2)c1OC [Example 4, 6-cyclopropaneamido-4-({2-methoxy-3-[5-(2-methoxyethyl)-1,2,4-oxadiazol-3-yl]phenyl}amino)-N-(^2H3)methylpyridazine-3-carboxamide] | 9 nM | – | –
CCOCc1nc(-c2cccc(Nc3cc(NC(=O)C4CC4)nnc3C(=O)NC)c2OC)no1 [Example 3, 6-cyclopropaneamido-4-({3-[5-(ethoxymethyl)-1,2,4-oxadiazol-3-yl]-2-methoxyphenyl}amino)-N-(^2H3)methylpyridazine-3-carboxamide] | 31 nM | – | –
